Here are results for four molecules from PMC6198510, “Switching Between Bicyclic and Linear Peptides — The Sulfhydryl-Specific Linker TPSMB Enables Reversible Cyclization of Peptides” (Frontiers in Chemistry, 2018).

Assay [1] addresses T1, JNK3 (Homo sapiens, UniProt P53779).
T1 construct: 39-402 was performed as described in literature; made in house
Briefly: direct titration fluorescence polarization assay. The format is binding. The note with it: direct titration FP. The procedure:
(§1) VII: Expression and Purification of JNK3
(§2) The expression and purification of JNK3339-402 was performed as described in literature. [Lange, A.; Günther, M.; Büttner, F. M.; Zimmermann, M. O.; Heidrich, J.; Hennig, S.; Zahn, S.; Schall, C.; Sievers-Engler, A.; Ansideri, F.; et al. Targeting the Gatekeeper MET146 of C-Jun N-Terminal Kinase 3 Induces a Bivalent Halogen/Chalcogen Bond. Journal of the American Chemical Society 2015, 137
(§3) VIII: Fluorescence polarization assay
Fluorescence polarization assays were performed in 96-wellplates (black, non-binding, Greiner bio-one). The measurements were performed in a CLARIOstar microplate reader (BMG Labtech, Ortenberg, Germany; excit. filter: 480 nm and an emiss. filter: 530 nm). Purified JNK3 was diluted in buffer (HEPES-Buffer, 25 mM) containing additional 0.1 mg/mL BSA. In the case of direct binding fluorescence polarization experiments, each protein concentration with a maximum concentration between 5 μM and 200 μM and a minimum concentration between 0.08 nM – 0.76 nM was measured in triplicates. The KD was obtained by curve fit based on eleven protein concentrations. […]
(§4) For all experiments DMSO (>99.5% (GC)) was […]
(§5) consistently used with a steady concentration of 5% (v/v). Before each measurement, the plates were shaked at 350 rpm for 30 min at room temperature on a plate shaker (Eppendorf MixMate). Before the measurement, the plates were incubated within the microplate reader for 2 min at 25°C and the focal height was adjusted to yield the optimal fluorescence intensity. Measured data was plotted and KD values were obtained by curve fitting of a standard four parameter logistic nonlinear regression model using the program Origin 9.1.
IX: Fluorescence polarization data
Table S2: Overview of the results obtained in direct titration fluorescence polarization assays.
SE = standard error from curve fit, SD = standard deviation from experiments 1-3. […]
Nucleic Acids Research, 37(Web Server issue), W441–W445], SE = standard error from curve fit. […]

Assay [2] concerns the target T1, JNK3. Description: competitive fluorescence polarization assay (displacement of PIT0105006). The format is binding. To be noted: competitive FP. The procedure: as §1, §2, §3
Fluorescence polarization assays were performed in 96-wellplates (black, non-binding, Greiner bio-one). The measurements were performed in a CLARIOstar microplate reader (BMG Labtech, Ortenberg, Germany; excit. filter: 480 nm and an emiss. filter: 530 nm). Purified JNK3 was diluted in buffer (HEPES-Buffer, 25 mM) containing additional 0.1 mg/mL BSA. […]
The KD was obtained by curve fit based on eleven protein concentrations. For competitive binding fluorescence polarization experiments, sample concentrations between 200 μM and 10 nM were measured in triplicates. A steady concentration of 10 nM was used for JNK3 and of 5 nM for the fluorescein-labelled compound PIT0105006 (KD= 3.0 ± 0.2 nM). [Ansideri, F.; Lange, A; El-Gokha […]
A.; Boeckler F. M.; Koch, P. Fluorescence polarization-based assays for detecting compounds binding […]
503, 28-40.]Control measurements were performed with PIT0104002 (concentration between 10 μM […]
as §4, §5
IX: Fluorescence polarization data […]
Table S3: Overview of the results obtained in competitive fluorescence polarization assays. a Conversion of obtained IC50 mean values to KI were performed using a web-based application available at: http://sw16.im.med.umich.edu/software/calc_ki/ (19.07.2018) [Cer, R. Z., Mudunuri, U., Stephens, R., & Lebeda, F. J. (2009). IC50-to-Ki: a web-based tool for converting IC50 to Ki values for inhibitors of enzyme activity and ligand binding. Nucleic Acids Research, 37(Web Server issue), W441–W445], SE = standard error from curve fit. […]
On the technique in general: In fluorescence polarisation assays a small probe gives low polarisation when free and higher when bound to something large.

Setting [3] is: fluorescein-labeled TPSMB-modified bicyclic peptide, JNK3 titrated, eleven protein concentrations in triplicates, 25 mM HEPES, 0.1 mg/mL BSA, 5% DMSO, 25°C, mean of experiments 1-3 (JK16, JK18: one experiment), read-out: Mean KD.
Setting [4] is: converted from mean IC50 with web-based IC50-to-Ki tool, read-out: KI.
Setting [5] is: unlabeled TPSMB bicyclic peptide displacing 5 nM PIT0105006 from 10 nM JNK3, 200 μM-10 nM in triplicates, 5% DMSO, 25°C, experiment 1, read-out: IC50 Exp. 1.
The mark [6] stands for this setting: unlabeled TPSMB bicyclic peptide, mean of experiments 1-2 (JK20: one experiment), read-out: Mean IC50.

Structures are written as SMILES. Like-named read-outs stand apart in the source and are kept apart here. Starred links: 1 amine or outer side, 2 acyl side, 3 side chain; linkers in the order of their positions; H or OH if unused. Positions of bridges follow the written chain, without caps; N, C: chain ends. Residues, ends and D or L forms follow the SMILES beside them. Benzene(1,3,5-(CH2S)3) = c1c(CS[*:1])cc(CS[*:3])cc1CS[*:2]

T1 sequence (P53779 39-402 limits assumed): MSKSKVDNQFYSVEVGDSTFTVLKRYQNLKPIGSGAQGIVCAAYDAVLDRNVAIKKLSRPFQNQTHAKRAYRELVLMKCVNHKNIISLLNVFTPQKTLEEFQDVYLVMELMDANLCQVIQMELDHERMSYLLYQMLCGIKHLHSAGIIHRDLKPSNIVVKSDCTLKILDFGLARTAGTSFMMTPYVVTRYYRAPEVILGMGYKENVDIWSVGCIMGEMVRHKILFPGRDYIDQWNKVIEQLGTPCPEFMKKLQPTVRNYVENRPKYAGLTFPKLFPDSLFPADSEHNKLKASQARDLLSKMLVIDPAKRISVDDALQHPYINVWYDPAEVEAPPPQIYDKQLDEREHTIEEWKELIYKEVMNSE

With `CSCC[C@@H]1NC(=O)[C@@H]2CSSCc3cc(cc(c3)CSSC[C@@H](C(=O)NCC(N)=O)NC(=O)[C@H](Cc3c[nH]c4ccccc34)NC(=O)[C@H](CCCNC(=N)N)NC(=O)[C@H](Cc3ccc(O)cc3)NC(=O)[C@H](CC(=O)O)NC(=O)[C@H](Cc3ccccc3)NC1=O)CSSC[C@H](NC(=O)[C@H](C)N)C(=O)N[C@@H](CC(=O)O)C(=O)N[C@@H](CC(=O)O)C(=O)N[C@@H](CCC(N)=O)C(=O)N[C@@H](Cc1c[nH]c3ccccc13)C(=O)N[C@@H](CCC(=O)O)C(=O)N[C@@H](Cc1ccc(O)cc1)C(=O)N2` [JK1-TPSMB] (H-ACDDQWEYCMFDYRWCG-NH2; linker 2-9-16 via Benzene(1,3,5-(CH2S)3)), the Kd (in general, a measure of binding affinity in units of concentration) at JNK3 [1] (setting [3]) is 1.7 ± 0.8 µM. Besides, the Ki (as a rule, a measure of affinity in units of concentration, obtained from inhibition or displacement) on JNK3 [2] (setting [4]) amounted to 6.6 µM; on JNK3 [2] (single experiment with IC50 = 15.6 μM, read-out: KI (Figure 5B)), 3.6 µM. Further, the IC50 (in general, the midpoint of a concentration-inhibition curve) on JNK3 [2] (setting [5]) was determined as 15.6 µM; on JNK3 [2] (unlabeled TPSMB bicyclic peptide displacing 5 nM PIT0105006 from 10 nM JNK3, experiment 2, read-out: IC50 Exp. 2), 41.3 µM.

As for `CSCC[C@H](NC(=O)[C@H](CS)NC(=O)[C@H](Cc1ccc(O)cc1)NC(=O)[C@H](CCC(=O)O)NC(=O)[C@H](Cc1c[nH]c2ccccc12)NC(=O)[C@H](CCC(N)=O)NC(=O)[C@H](CC(=O)O)NC(=O)[C@H](CC(=O)O)NC(=O)[C@H](CS)NC(=O)[C@H](C)N)C(=O)N[C@@H](Cc1ccccc1)C(=O)N[C@@H](CC(=O)O)C(=O)N[C@@H](Cc1ccc(O)cc1)C(=O)N[C@@H](CCCNC(=N)N)C(=O)N[C@@H](Cc1c[nH]c2ccccc12)C(=O)N[C@@H](CS)C(=O)NCC(N)=O` [JK1] (H-ACDDQWEYCMFDYRWCG-NH2), the Kd is 1.7 ± 0.8 µM on JNK3 [1] (setting [3]) and about 390 µM on JNK3 [1] (fluorescein-labeled unmodified linear peptide, without cyclisation by TPSMB, curve fit (SE: 250 μM), read-out: KD of linear peptide). Besides, the Ki on JNK3 [2] (setting [4]) came out at 6.6 µM. The IC50 at JNK3 [2] (setting [6]) stood at 28.4 µM.

With `CC(C)C[C@@H]1NC(=O)[C@H](CC(=O)O)NC(=O)[C@H](CCC(=O)O)NC(=O)[C@@H]2CSSCc3cc(cc(c3)CSSC[C@@H](C(=O)NCC(N)=O)NC(=O)[C@H](CC(=O)O)NC(=O)[C@H](CC(=O)O)NC(=O)[C@H](CC(N)=O)NC1=O)CSSC[C@H](NC(=O)[C@H](C)N)C(=O)N[C@@H](Cc1ccccc1)C(=O)N[C@@H](Cc1c[nH]c3ccccc13)C(=O)N[C@@H](Cc1c[nH]c3ccccc13)C(=O)N[C@@H](Cc1ccccc1)C(=O)NCC(=O)N[C@@H](C)C(=O)N2` [JK10-TPSMB] (H-ACFWWFGACEDLNDDCG-NH2; linker 2-9-16 via Benzene(1,3,5-(CH2S)3)), the Ki at JNK3 [2] (setting [4]) came out at 5.5 µM. In addition, the IC50 on JNK3 [2] (setting [6]) turned out to be 23.6 µM.

As for `CC[C@H](C)[C@@H]1NC(=O)[C@H](CCC(=O)O)NC(=O)[C@H](CC(=O)O)NC(=O)[C@H](Cc2c[nH]cn2)NC(=O)[C@@H](NC(=O)[C@H](C)N)CSSCc2cc3cc(c2)CSSC[C@H](NC(=O)[C@H]([C@@H](C)O)NC(=O)[C@H](Cc2c[nH]c4ccccc24)NC1=O)C(=O)N[C@@H](C(C)C)C(=O)N[C@@H](Cc1ccccc1)C(=O)N[C@@H](Cc1c[nH]cn1)C(=O)N[C@@H](CC(=O)O)C(=O)N[C@@H](CCC(=O)O)C(=O)N[C@@H](Cc1ccccc1)C(=O)N[C@H](C(=O)NCC(N)=O)CSSC3` [JK20-TPSMB] (H-ACHDEIWTCVFHDEFCG-NH2; linker 2-9-16 via Benzene(1,3,5-(CH2S)3)), on JNK3 [2] (setting [4]), the Ki turned out to be 6.5 µM. For the same molecule, the IC50 on JNK3 [2] (setting [5]) and at JNK3 [2] (setting [6]) was 27.8 µM each time.
